Among the data in the METLIN SMRT retention time set (Domingo-Almenara et al. 2019) are RP-LC retention time values, retold here.

SMILES strings stand for the structures.

This series in a line: gradient 5% acetonitrile 3 min, to 50% in 2 min, to 85% in 15 min, held 3 min, 100 µL/min. The following applies: column: Zorbax Extend-C18 2.1 x 50 mm; eluents: water / acetonitrile, 0.1% formic acid. Summed up:
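Retention times of pure standards were taken from adduct peaks that were selected by computer and manually inspected. Over 3 months, mixtures of ~100 molecules were run by HPLC–quadrupole time-of-flight mass spectrometry in positive and negative ionization mode. The Zorbax Extend-C18 column (2.1 × 50 mm, 1.8 μm) ran at 100 μL/min in water and acetonitrile, each containing 0.1% formic acid, with 40 μL dead volume and 900 μL dwell volume.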
`Cc1cc(C)nc(SCc2cc(=O)c(OC(=O)c3cccc([N+](=O)[O-])c3C)co2)n1` came in with an RP-LC retention time of 883 s.

Regarding `CC(C)NC(=O)N1CCCC1c1nc(-c2cccc(Cl)c2)no1` (centres undefined), the RP-LC retention time was 906 s.

`CCc1noc(C2(NC(=O)c3cccc(Cl)c3)CCCCC2)n1` returned an RP-LC retention time of 1030 s.

Regarding `CN(C)S(=O)(=O)c1ccc(C(=O)OCc2cc(-c3ccc(Cl)cc3)on2)cc1`, the RP-LC retention time was determined as 1090 s.

`CCc1nccn1Cc1noc(-c2ccco2)n1` displayed an RP-LC retention time of 566 s.

In turn, `COc1cc(OC)cc(-c2nc(-c3ccc(NS(=O)(=O)c4cccs4)cc3)no2)c1` showed an RP-LC retention time of 1120 s.

In turn, `Cc1ccc(CN2CCC(CNC(=O)c3c(C)oc4nc(C)nc(N5CCOCC5)c34)CC2)cc1` registered an RP-LC retention time of 629 s.

`CC1(C)CS(=O)(=O)N(c2ccc(C(=O)NCCc3c[nH]c4ccccc34)cc2)C1=O` showed an RP-LC retention time of 825 s.

As for `O=C(Nc1ncnc2c1CCC2)c1ccc(S(=O)(=O)N2CCCc3ccccc32)cc1`, the RP-LC retention time is 817 s.

`CCC(=O)Nc1ccc(N(C)CCc2c(C)nn(C)c2C)c(C(=O)O)c1` returned an RP-LC retention time of 572 s.

For `CC1=C(C(=O)NCCCN2CCN(Cc3ccccc3)CC2)C2(CCCCC2)OC1=O`, the RP-LC retention time stood at 627 s.

Turning to `Cc1ccc(C)c(CNC(=O)c2cc3c(=O)n(C)c4ccccc4n3n2)c1`, the RP-LC retention time was 966 s.

`COC(=O)c1cc(OC)c(OC)cc1NC(=O)C1Oc2ccccc2OC1C` (centres undefined) returned an RP-LC retention time of 1040 s.

`Cc1ccc(NC(=O)N2CCCC(C)(C(=O)NCc3ccccc3)C2)cc1F` (centres undefined) gave an RP-LC retention time of 945 s.

The compound `Cc1cc(NC(=O)c2c[nH]c3ncccc23)ccc1F` showed an RP-LC retention time of 739 s.

Compound `CCCN(C)S(=O)(=O)c1cc(-c2nnc(C)o2)co1` yielded an RP-LC retention time of 768 s.

Take `Cc1ccc2nc(-c3c(F)cccc3Cl)c(Nc3ccc4c(c3)OCCO4)n2c1`: the RP-LC retention time turned out to be 692 s.

As for `O=C(Cn1nc(-c2ccco2)ccc1=O)NCc1ccco1`, the RP-LC retention time was found to be 628 s.

`O=C(C1CCC1)N1CCc2sc(S(=O)(=O)Nc3ccc(Cl)cc3)cc2C1`: the RP-LC retention time came out at 929 s.

For `CCOC(=O)C(CC)SC1=NS(=O)(=O)c2cc(F)ccc2N1` (centres undefined), the RP-LC retention time is 758 s.

The compound `CCCCCNC(=O)c1ccc2c(c1)CCCN2S(=O)(=O)CC` returned an RP-LC retention time of 896 s.

Turning to `CCCN1CCN(CCCNC(=O)C(C)n2c3ccccc3c3cnn(C)c(=O)c32)CC1` (centres undefined), the RP-LC retention time was found to be 571 s.

With `COc1cc(OC)cc(-c2nnc(Cc3nc(-c4ccc(Cl)cc4)no3)o2)c1`, the RP-LC retention time amounted to 1110 s.

In turn, `O=C(CN1CC(c2nc(-c3cccnc3)no2)C1)Nc1cc(C(F)(F)F)ccc1Cl` displayed an RP-LC retention time of 634 s.

Compound `CCc1nc2cc(-c3noc(CNC(=O)Cc4ccc(Cl)cc4)n3)ccc2o1` returned an RP-LC retention time of 882 s.

For the compound `Cc1nnc(N2CCC(C(=O)N3CCN(C)CC3)CC2)c2nn(-c3ccccc3)c(C)c12`, the RP-LC retention time stood at 573 s.

Regarding `CCC(c1cccs1)N1C(=O)[C@H]2CN(S(=O)(=O)Cc3ccccc3)C[C@H]2C1=O` (some centres undefined), the RP-LC retention time worked out at 964 s.

In turn, `COc1ccc(OC)c(CNC(=O)c2cn3c(n2)COCC3)c1` registered an RP-LC retention time of 639 s.

Take `CC1CCN(S(=O)(=O)c2ccc(-c3nnc(C(=O)NC(C)C)o3)cc2)CC1`: the RP-LC retention time was determined as 934 s.

Consider `CC(=O)Nc1ccc2c(c1)Sc1ncccc1C(=O)N2C(C)C`, for which the RP-LC retention time was 669 s.

`Cc1cccc(CNC(=O)c2nnc(-c3ccc(S(=O)(=O)N(C)C)cc3)o2)c1` showed an RP-LC retention time of 894 s.

Take `Cc1[nH]c(C(=O)N2CCCC(C(=O)NCc3ccc(OC(C)C)cc3)C2)c(C)c1C(=O)OC(C)C` (centres undefined): the RP-LC retention time stood at 929 s.

For the compound `COCc1ccc(C(=O)Nc2nnc(C)s2)o1`, the RP-LC retention time was determined as 595 s.

With `CCOC(=O)C1CCN(c2ncc(S(=O)(=O)c3ccc(Cl)cc3)c(N)n2)CC1`, the RP-LC retention time turned out to be 1030 s.

Take `COc1ccccc1C(CNC(=O)c1cc(=O)c2ccc(Br)cc2o1)N(C)C` (centres undefined): the RP-LC retention time turned out to be 669 s.

`CCOC(=O)c1nc(NCCCN2CCC(Cc3ccccc3)CC2)c2ccccc2n1` registered an RP-LC retention time of 690 s.

In the case of `O=C(CCCc1ccccc1)N1CCC(c2noc(-c3cnccn3)n2)C1` (centres undefined), the RP-LC retention time worked out at 776 s.

Consider `CCCN(C(=O)c1ccccc1C)c1nc(-c2ccccc2)cs1`, for which the RP-LC retention time was found to be 1320 s.

For `CC(C)Cn1cc(CCNS(=O)(=O)c2cccc(C(F)(F)F)c2)c2cccnc21`, the RP-LC retention time came out at 1030 s.

In the case of `O=C1CCCN1CCCN1C(=O)[C@H]2CN(Cc3ccccc3Cl)C[C@H]2C1=O`, the RP-LC retention time is 596 s.

Regarding `COc1cccc(-c2csc(Cc3nc(-c4cccc(Cl)c4)no3)n2)c1`, the RP-LC retention time stood at 1280 s.

The compound `CCC(C)N(CC(=O)N(Cc1ccco1)CC1CCCO1)C(=O)c1ccc(F)cc1` (centres undefined) came in with an RP-LC retention time of 864 s.

`COc1cccc(CNC2=NCCNC23CCN(S(=O)(=O)c2ccc(C)c(C)c2)CC3)c1` displayed an RP-LC retention time of 775 s.

`COC(=O)[C@H]1[C@H]2C[C@H]3c4[nH]c5ccccc5c4CCN3C[C@H]2CC[C@@H]1O` had an RP-LC retention time of 671 s.

Consider `Cc1ccc2[nH]cc(CCNC(=O)c3ccc(Cl)cc3Cl)c2c1`, for which the RP-LC retention time came to 957 s.

As to `COc1ccc(-c2cc(C(=O)N3CCN(S(=O)(=O)c4ccc(C(C)(C)C)cc4)CC3)[nH]n2)cc1`, the RP-LC retention time amounted to 1030 s.

The compound `Cc1[nH]c(-c2ccc(F)cc2)cc1C(=O)N1CC=C(c2ccccc2)CC1` registered an RP-LC retention time of 1030 s.

For the compound `Cc1ccc(Cl)cc1NC(=O)CC1COc2ccccc2NC1=O` (centres undefined), the RP-LC retention time was 767 s.

Compound `CN1C(=O)c2cc(C(=O)NCCCc3ccccc3)nn2CC1(C)C(=O)NC1CCCCC1` (centres undefined) gave an RP-LC retention time of 854 s.

In turn, `Cc1ccccc1S(=O)(=O)N1CCC(CCC(=O)NC2CCS(=O)(=O)C2)CC1` (centres undefined) came in with an RP-LC retention time of 726 s.

With `Cc1ccc2c(n1)nn1c(C)cc(C)nc21`, the RP-LC retention time was determined as 557 s.

Turning to `COc1ccc(CCNC(=O)Cn2nc3n(c2=O)CCCC3)cc1OC`, the RP-LC retention time was 613 s.

As for `CC(=O)N1CCc2cc(N3CC(C(=O)NCc4ccc(C)c(C)c4)CC3=O)ccc21` (centres undefined), the RP-LC retention time stood at 750 s.

Turning to `O=c1ccc(-c2ccc3c(c2)OCO3)nn1Cc1nc(-c2ccc(C(F)(F)F)cc2)no1`, the RP-LC retention time is 1070 s.

As to `CCOc1ccc(CCNC(=O)c2cc3sc(Cl)cc3n2CC)cc1OCC`, the RP-LC retention time was found to be 1200 s.

`O=c1cccnn1CCNS(=O)(=O)c1ccc(OC(F)(F)F)cc1` yielded an RP-LC retention time of 711 s.

`CCc1cc(C(=O)Nc2ccccc2)nc2ccnn12` came in with an RP-LC retention time of 960 s.

`CC(C)(C)c1noc(-c2ccc(=O)n(Cc3cccc(F)c3)n2)n1` came in with an RP-LC retention time of 1050 s.

In turn, `Cc1cc(N2CCCC2)n2nc(CN3CCCC(C)C3)nc2n1` (centres undefined) gave an RP-LC retention time of 571 s.
